Converted amounts (≈) assume the structure as drawn. Like-named read-outs stand apart in the source and are kept apart here.
Assays:
[1] = tested on: E. coli (MG1655) WT; test: MIC, microdilution in Mueller-Hinton Broth; settings: wild type, read-out: Whole cell based antibacterial activity (MIC) E. coli (MG1655) WT
[2] = tested on: E. coli Imp4213 (BAS3023); test: MIC, microdilution in Mueller-Hinton Broth; type: cell-based; settings: for MIC: Escherichia coli, read-out: Whole cell based antibacterial activity (MIC) E. coli Imp4213 (BAS3023), membrane permeable imp mutant; for Whole cell based antibacterial activity (MIC) E. coli Imp4213 (BAS3023): membrane permeable imp mutant
[3] = target: E. coli topoisomerase I (Escherichia coli (strain K12), UniProt P06612); test: biochemical; type: biochemical
E. coli topoisomerase I, sequence (P06612 whole entry, looked up): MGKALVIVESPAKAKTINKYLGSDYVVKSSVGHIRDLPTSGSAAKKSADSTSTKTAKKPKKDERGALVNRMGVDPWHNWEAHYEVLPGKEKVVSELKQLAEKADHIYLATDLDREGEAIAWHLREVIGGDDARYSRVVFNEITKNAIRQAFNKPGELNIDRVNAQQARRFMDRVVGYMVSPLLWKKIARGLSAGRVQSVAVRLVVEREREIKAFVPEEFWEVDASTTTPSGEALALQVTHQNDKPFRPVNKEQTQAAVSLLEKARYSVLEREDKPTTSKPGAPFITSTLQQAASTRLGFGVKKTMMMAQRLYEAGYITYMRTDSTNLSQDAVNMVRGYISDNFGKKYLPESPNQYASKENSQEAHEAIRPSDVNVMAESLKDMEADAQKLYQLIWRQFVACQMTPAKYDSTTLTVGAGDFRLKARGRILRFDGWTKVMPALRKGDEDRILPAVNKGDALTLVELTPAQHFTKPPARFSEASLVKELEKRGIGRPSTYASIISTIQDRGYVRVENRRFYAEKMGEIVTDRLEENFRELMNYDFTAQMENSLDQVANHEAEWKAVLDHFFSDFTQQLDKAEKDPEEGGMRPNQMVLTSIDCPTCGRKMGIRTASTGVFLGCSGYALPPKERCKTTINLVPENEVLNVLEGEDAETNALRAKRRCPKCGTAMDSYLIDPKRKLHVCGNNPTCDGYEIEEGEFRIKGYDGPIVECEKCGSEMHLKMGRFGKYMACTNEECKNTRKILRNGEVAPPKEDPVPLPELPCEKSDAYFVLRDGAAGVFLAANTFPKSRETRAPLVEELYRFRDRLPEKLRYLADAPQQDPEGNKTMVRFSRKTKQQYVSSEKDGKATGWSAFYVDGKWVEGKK
Experimental: Recombinant E. coli topoisomerase I and gyrase expressed in E. coli were purified as described previously.
E. coli Topoisomerase I Relaxation Activity Inhibition Assay
The relaxation activity of E. coli topoisomerase I was assayed in a buffer containing 10 mM Tris-HCl, pH 8.0, 50 mM NaCl, 0.1 mg/mL gelatin, and 0.5 mM MgCl2. Half microliter from the appropriate stock solutions of compounds dissolved in the solvent (DMSO) or the solvent alone (control) was mixed with 9.5 μL of the reaction buffer containing 10 ng of enzyme before the addition of 10 μL of reaction buffer containing 200 ng of supercoiled pBAD/Thio plasmid DNA purified by cesium chloride gradient as substrate. Following incubation at 37° C. for 30 min, the reactions were terminated by the addition of 4 μL of a stop buffer (50% glycerol, 50 mM EDTA, and 0.5% (v/v) bromophenol blue), and analyzed by agarose gel electrophoresis. The gels were stained in ethidium bromide and photographed under UV light.

[4] = tested on: B. subtilis (ATCC 6633) WT; test: MIC, microdilution in Mueller-Hinton Broth; settings: read-out: Whole cell based antibacterial activity (MIC) B. subtilis (ATCC 6633) WT
[5] = tested on: Vero cells; test: Vero cell cytotoxicity assay; type: cell-based; settings: Chlorocebus sabaeus, Vero; cytotoxicity
Experimental: MICs of compounds against M. tuberculosis were determined by a modified microplate Alamar blue assay (MABA). Vero cell cytotoxicity assay was performed as previously described.

[6] = target: Human topoisomerase I (Homo sapiens (Human), UniProt P11387); test: Human topoisomerase I relaxation inhibition assay; type: biochemical; settings: read-out: Topoisomerase inhibitory activity (IC50) Human topo I (type IB)
Human topoisomerase I, sequence (P11387 whole entry): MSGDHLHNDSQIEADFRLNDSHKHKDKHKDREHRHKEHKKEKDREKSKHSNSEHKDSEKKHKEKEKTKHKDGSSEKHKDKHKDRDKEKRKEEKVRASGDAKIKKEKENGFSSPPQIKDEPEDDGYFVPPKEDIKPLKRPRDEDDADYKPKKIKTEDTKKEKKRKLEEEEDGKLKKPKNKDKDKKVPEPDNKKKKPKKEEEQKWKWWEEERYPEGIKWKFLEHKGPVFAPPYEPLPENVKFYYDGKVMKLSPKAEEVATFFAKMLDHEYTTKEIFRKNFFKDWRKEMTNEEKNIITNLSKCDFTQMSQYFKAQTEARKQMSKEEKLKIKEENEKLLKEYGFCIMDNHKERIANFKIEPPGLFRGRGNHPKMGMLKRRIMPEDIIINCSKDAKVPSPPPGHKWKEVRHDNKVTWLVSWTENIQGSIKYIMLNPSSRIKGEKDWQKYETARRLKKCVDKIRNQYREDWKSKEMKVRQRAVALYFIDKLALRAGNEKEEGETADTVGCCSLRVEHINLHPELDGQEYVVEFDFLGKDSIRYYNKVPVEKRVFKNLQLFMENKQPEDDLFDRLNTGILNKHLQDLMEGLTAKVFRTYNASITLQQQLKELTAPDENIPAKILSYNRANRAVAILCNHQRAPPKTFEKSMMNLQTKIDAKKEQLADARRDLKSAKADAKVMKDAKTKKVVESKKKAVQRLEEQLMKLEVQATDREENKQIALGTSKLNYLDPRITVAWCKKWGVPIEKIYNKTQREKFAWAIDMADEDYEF
Experimental: Human topoisomerase I relaxation assays were carried out with 0.5 U of enzyme in reaction buffer supplied by the manufacturer. The enzyme was mixed with the indicated concentration of compound dissolved before 200 ng of supercoiled pBAD/Thio plasmid DNA was added in the same buffer, for a final volume of 20 μL. Following incubation at 37° C. for 30 minutes, the reactions were terminated with a buffer containing 5% SDS, 0.25% bromophenol blue, and 25% glycerol, and analyzed by agarose gel electrophoresis.
Human topoisomerase I and topoisomerase IIα were purchased from TopoGen (Buena vista, CO, USA).

[7] = tested on: M. tuberculosis (H37Rv); test: MIC, microplate Alamar blue assay (MABA); type: cell-based; settings: MABA, read-out: Whole cell based antibacterial activity (MIC) M. tuberculosis (H37Rv)
[8] = experimental, converted from IC50
[9] = Table 3, E. coli topoisomerase I, single values set for ranges and bounds, read-out: IC50 (μM) used for CoMFA
[10] = relaxation of supercoiled plasmid DNA, read-out: Topoisomerase inhibitory activity (IC50) E. coli topo I (type IA)
[11] = Bacillus subtilis, ATCC6633, wild type
[12] = Topoisomerase inhibitory activity (IC50) E. coli topo I (type IA), relaxation of supercoiled plasmid DNA

Structure (SMILES) | MIC ([1]; Escherichia coli, MG1655) | MIC [2] | PIC50 (pIC50 = −log IC50) [3, 8] | other results
CCOC(=O)c1cn2c3c(c(F)c(F)cc3c1=O)Oc1cc([N+](=O)[O-])ccc1-2 [Compound 6a, Ethyl 5,6-difluoro-9-nitro-3-oxo-3H-pyrido[3,2,1-kl]phenoxazine-2-carboxylate] | > 200 µM | 50 µM (≈ 19.4 µg/mL) | 4.81 | –
CCOC(=O)c1cn2c3c(c(F)c(F)cc3c1=O)Oc1cc(C#N)ccc1-2 [Compound 6b, Ethyl 9-cyano-5,6-difluoro-3-oxo-3H-pyrido[3,2,1-kl]phenoxazine-2-carboxylate] | > 200 µM | – | 4.51 | –
CCOC(=O)c1cn2c3c(c(F)c(F)cc3c1=O)Oc1cc(C(F)(F)F)ccc1-2 [Compound 6c, Ethyl 5,6-difluoro-3-oxo-9-(trifluoromethyl)-3H-pyrido[3,2, I-kl]phenoxazine-2-carboxylate] | – | – | 3.60 | MIC ([4]; wild type): >200 µM; MIC [1]: >200 µM; Whole cell based antibacterial activity (MIC) E. coli Imp4213 (BAS3023) [2]: >200 µM; activity against topoisomerase I when tested at 125 μM [3]: inactive; IC50 [3, 9]: 250 µM; IC50 [3, 10]: > 125 µM
O=C(O)c1cn2c3c(c(F)c(F)cc3c1=O)Oc1cc([N+](=O)[O-])ccc1-2 [Compound 7a, 5,6-Difluoro-9-nitro-3-oxo-3H-pyrido[3,2,1-kl]phenoxazine-2-carboxylic acid] | 200 µM (≈ 72 µg/mL) | 0.78 µM (≈ 0.281 µg/mL) | 4.81 | –
N#Cc1ccc2c(c1)Oc1c(F)c(F)cc3c(=O)c(C(=O)O)cn-2c13 [Compound 7b, 9-Cyano-5,6-d fluoro-3-oxo-3H-pyrido[3,2,1-d]phenoxazine-2-carboxylic acid] | – | – | 4.51 | MIC ([4]; wild type): >200 µM; MIC [1]: >200 µM; Whole cell based antibacterial activity (MIC) E. coli Imp4213 (BAS3023) [2]: 200 µM; IC50 [3, 9]: 31.2 µM; IC50 [3, 10]: 31.2 µM
O=C(O)c1cn2c3c(c(F)c(F)cc3c1=O)Oc1cc(C(F)(F)F)ccc1-2 [Compound 7c, 5,6-Difluoro-3-oxo-9-(trifluoromethyl)-3H-pyrido[3,2,1-kl]phenoxazine-2-carboxylic acid] | > 200 µM | – | – | activity against topoisomerase I when tested at 125 μM [3]: inactive; IC50 ([3]; IC50 (μM) used for CoMFA, Table 3, E. coli topoisomerase I, single values set for ranges and bounds): 250 µM; IC50 ([3]; PIC50 (pIC50 = −log IC50), experimental, converted from IC50): 245 µM; IC50 [3, 10]: > 125 µM
CC(=O)c1ccc2c(c1)Oc1c(F)c(F)cc3c(=O)c(C(=O)O)cn-2c13 [Compound 7d, 9-A cetyl-5,6-difluoro-3-oxo-3H-pyrido[3,2,1-kl]phenoxazine-2-carboxylic acid] | > 200 µM | – | 4.81 | MIC [4, 11]: > 200 µM
CCOC(=O)c1cn2c3c(c(N4CCN(C)CC4)c(F)cc3c1=O)Oc1cc([N+](=O)[O-])ccc1-2 [Compound 9, Ethyl-5-fluoro-6-(4-methylpiperazin-1-yl)-9-nitro-3-oxo-3H-pyrido[3,2,1-kl]phenoxazine-2-carboxylate] | > 200 µM | 25 µM (≈ 11.7 µg/mL) | 5.71 | –
O=C(O)c1cn2c3c(c(N4CCNCC4)c(F)cc3c1=O)Oc1cc([N+](=O)[O-])ccc1-2 [Compound 10b, 5-Fluoro-9-nitro-3-oxo-6-(piperazin-1-yl)-3H-pyrido[3,2,1-kl]phenoxazine-2-carboxylic acid] | > 200 µM | – | 5.41 | MIC [4, 11]: > 200 µM
Nc1ccc2c(c1)Oc1c(N3CCNCC3)c(F)cc3c(=O)c(C(=O)O)cn-2c13 [Compound 11b, 9-Amino-5-fluoro-3-oxo-6-(piperazin-1-yl)-3H-pyrido[3,2,1-kl]phenoxazine-2-carboxylic acid] | > 200 µM | 0.39 µM (≈ 0.155 µg/mL) | 6.62 | IC50 [5]: > 126 µM; IC50 [6]: 7.8 µM; IC50 [3, 12]: 0.24 to 0.97 µM
CC1CCN(c2c(F)cc3c(=O)c(C(=O)O)cn4c3c2Oc2cc(N)ccc2-4)CC1 [Compound 11c, 9-Amino-5-fluoro-6-(4-methylpiperidin-1-yl)-3-oxo-3H-pyrido[3,2,1-kl]phenoxazine-2-carboxylic acid] | > 200 µM | 3.12 µM (≈ 1.28 µg/mL) | 5.41 | IC50 [3, 12]: 3.9 to 15.6 µM
Nc1ccc2c(c1)Oc1c(NC3CCCCC3)c(F)cc3c(=O)c(C(=O)O)cn-2c13 [Compound 11i, 9-Amino-6-(cyclohexylamino)-5-fluoro-3-oxo-3H-pyrido[3,2,1-kl]phenoxazine-2-carboxylic acid] | > 200 µM | 25 µM (≈ 10.2 µg/mL) | 5.41 | IC50 [3, 12]: 3.9 to 15.6 µM
Nc1ccc2c(c1)Oc1c(NC3CCCC3)c(F)cc3c(=O)c(C(=O)O)cn-2c13 [Compound 11j, 9-Amino-6-(cyclopentylamino)-5-fluoro-3-oxo-3H-pyrido[3,2,1-kl]phenoxazine-2-carboxylic acid] | > 200 µM | 25 µM (≈ 9.88 µg/mL) | 5.41 | IC50 [3, 12]: 3.9 to 15.6 µM
CCCCCCNc1c(F)cc2c(=O)c(C(=O)O)cn3c2c1Oc1cc(N)ccc1-3 [Compound 11k, 9-Amino-5-fluoro-6-(hexylamino)-3-oxo-3H-pyrido[3,2,1-kl]phenoxazine-2-carboxylic acid] | > 200 µM | – | 4.81 | MIC [4, 11]: > 200 µM; IC50 [3, 12]: 3.9 to 15.6 µM
CC(=O)Nc1ccc2c(c1)Oc1c(F)c(F)cc3c(=O)c(C(=O)O)cn-2c13 [Compound 12, 9-acetamido-5,6-difluoro-3-oxo-3H-pyrido[3,2,1-kl]phenoxazine-2-carboxylic acid] | > 200 µM | – | 5.11 | MIC [4, 11]: > 200 µM
CC(C)(C)OC(=O)N[C@H]1CCN(c2c(F)cc3c(=O)c(C(=O)O)cn4c3c2Oc2cc(N)ccc2-4)C1 [Compound 15a, (S)-9-amino-6-(3-((tert-butoxycarbonyl)amino)pyrrolidin-1-yl)-S-fluoro-3-oxo-3H-pyrido[3,2,1-kl]phenoxazine-2-carboxylic acid] | – | – | 5.41 | MIC ([4]; wild type): 12.5 µM (≈ 6.21 µg/mL); MIC [1]: >200 µM; Whole cell based antibacterial activity (MIC) E. coli Imp4213 (BAS3023) [2]: 12.5 µM; IC50 [3, 9]: 3.9 µM; IC50 [3, 10]: 3.9 µM
Nc1ccc2c(c1)Oc1c(N3CC[C@@H](N)C3)c(F)cc3c(=O)c(C(=O)O)cn-2c13 [Compound 17b, (R)-9-amino-6-(3-aminopyrrolidin-1-yl)-5-fluoro-3-oxo-3H-pyrido[3,2,1-kl]phenoxazine-2-carboxylic acid] | > 200 µM | 6.25 µM (≈ 2.48 µg/mL) | 6.14 | IC50 [5]: > 63.1 µM; MIC [7]: >63.1 µM; MIC ([7]; Mycobacterium tuberculosis, H37RV): > 63.1 µM
